The data set can be described thus: Human HepG2 cell viability assay in 384 well format. The class given is toxicity, cell-based. On the set-up: dose 125 nL, time 70.5 hour; concentration not given beside the values. Conditions: HepG2 cells, read-out: Inhibition.
Take `Cc1cc(C)c(CNC(=O)NCC2COc3ccccc3C2)c(=O)[nH]1` (stereo not given): the cytotoxicity at 70.5 h is -10.2%. On to `CCOc1ccc(CNC(=O)N(C)CC(C)(C)O)cc1C`, for which the cytotoxicity at 70.5 h is -60%.

Turning to `O=C(O)CNC(=O)Cc1csc(-c2cccc(Cl)c2)n1`, the cytotoxicity at 70.5 h was 21.1%.

In the case of `Cc1nsc(NC(=O)N2CCCC2C)n1` (stereo not given), the cytotoxicity at 70.5 h was found to be 2.78%. Next, `COCCN(C(=O)c1ccc(OC)cc1)c1ccc(C#N)cc1`: 10.5%. Next, `CC(C)Cc1noc(CN2CCOCC2C)n1` (stereo not given): -1.45%; `CC(C)COCCC(=O)Nc1cc(-n2nnnc2C2CC2)ccc1F`: -8.14%; `NC1C=C(C(F)(F)F)NC=C1c1ccc(Cl)cc1` (stereo not given): 3.46%. Next, `COC[C@H]1CC[C@H]2[C@H](CCN2S(=O)(=O)Cc2ccccc2)O1`: -4.05%; `c1ccc(Cc2noc(CNC3CCc4ncnn4C3)n2)cc1` (stereo not given): -5.32%; `Cc1ccnc(C(NC(=O)c2ncoc2C)C2CC2)n1` (stereo not given): 16.5%. Take `COc1cccc(CN2CCC3(CCN(c4ncc(C)cn4)C3)C2=O)c1` (stereo not given): the cytotoxicity at 70.5 h was -0.0299%. On to `CCCn1ncc(C(=O)N(C)Cc2cc(C3CC3)[nH]n2)c1C`, for which the cytotoxicity at 70.5 h came to 0.995%. On to `O=C(NCc1cnn(-c2ccc(F)cc2F)c1)C1CCCO1` (stereo not given), for which the cytotoxicity at 70.5 h is -1.57%.

In the case of `CC(C)C(=O)NC1COC2(CCN(Cc3cccnc3)CC2)C1` (stereo not given), the cytotoxicity at 70.5 h is -10.3%. With `c1cncc(CN2CCC(c3ccc4c(c3)OCO4)CC2)c1`, the cytotoxicity at 70.5 h came to 19.4%.

For `COCCn1ccnc1C1CCN(C(=O)CSc2nnc(C)o2)CC1`, the cytotoxicity at 70.5 h was found to be 9.15%. For the molecule `Cn1ncc(N2CCC(CNC(=O)[C@@H](N)c3ccccc3)CC2)cc1=O`, the cytotoxicity at 70.5 h was -4.64%. The figure for `Cc1ccc(NS(=O)(=O)c2c[nH]c3ncccc23)nc1` is -2%; for `CN1CCCC(c2nnc3n2CCN(S(=O)(=O)c2ccccc2Cl)C3)C1` (stereo not given) it is -9.93%. Regarding `COc1ccccc1OCC(=O)Nc1ncccc1Cl`, the cytotoxicity at 70.5 h is -0.838%. `C=C(C)CN1CCN(Cc2cnc(-c3ccc(OC)cc3)nc2)CC1`: the cytotoxicity at 70.5 h worked out at 9.18%. The figure for `Cc1noc([C@H]2C[C@H]3CN(C(=O)C4CCOCC4)CC[C@@H]3O2)n1` is -12.9%; for `COCCN(Cc1ccc(F)cc1Cl)C(=O)c1cc(C)no1` it is -1.27%; for `C[C@H]1CN(C(=O)c2cccnc2)C[C@@]12CCN(CCN1CCCC1)C2=O` it is -6.14%. `Cc1ccc(NCc2ccco2)cc1N1CCOC1=O`: the cytotoxicity at 70.5 h is -16%.

As for `COc1ccccc1NCC(=O)NCc1ccc(-c2ccn[nH]2)cc1`, the cytotoxicity at 70.5 h was -4.94%. Next, `Cc1noc(CNC(=O)NCC2(C)CCCc3ccccc32)n1` (stereo not given): -8.6%. The figure for `Nc1cccnc1N1CCC(O)CC1` is -1.82%.

Turning to `CCN(Cc1ccc(-c2ccccn2)cc1)C1CCS(=O)(=O)C1` (stereo not given), the cytotoxicity at 70.5 h was -1.78%.

With `Cc1csc(S(=O)(=O)N2CCN(C)C3(CCC(=O)N(C)CC3)C2)c1` (stereo not given), the cytotoxicity at 70.5 h is -11.5%.

Regarding `CNC(=O)CN1CCC(CN(C)Cc2ccc(C)cc2C)CC1`, the cytotoxicity at 70.5 h worked out at 27.9%. On to `Cc1cc(N(C)C)nc(C2CCCNC2)n1` (stereo not given), for which the cytotoxicity at 70.5 h is -1.07%. Next, `COC[C@H]1CNC(=O)[C@@H]2CCN(Cc3cccc(C)n3)CC[C@H]12`: 0.496%; `CC(C)Cc1nc(CN(C)CCOc2ccccc2F)no1`: 12.5%. Next, `CC(C)N1CCCC(CCCc2ccccn2)(C(=O)O)C1` (stereo not given): -14.7%; `CCOCCNS(=O)(=O)c1cc(C)c2nc(O)cc(C)c2c1`: 21%; `O=S(=O)(NCCCn1cncn1)c1ccc2c(c1)CCO2`: -5.26%. The figure for `COc1cc(N2CC3(CCN(S(=O)(=O)C4CC4)C3)C2)ncn1` is -7.2%; for `CN(Cc1cc(Br)cn1C)C(=O)Cc1cccnc1` it is -9.83%; for `CC(NC(=O)c1nc(=O)[nH][nH]1)c1ccc(OCC2CC2)c(F)c1` (stereo not given) it is 29.1%. On to `CN(Cc1cnccn1)S(=O)(=O)c1ccc(C(F)(F)F)nc1`, for which the cytotoxicity at 70.5 h turned out to be 36.5%. As to `CC(NC(=O)NCCCN1CCc2ccccc2C1)c1nncn1C` (stereo not given), the cytotoxicity at 70.5 h came to 7.19%. Next, `CCN(CC)Cc1cc(=O)n2c(n1)CN(S(=O)(=O)C1CC1)CCC2`: -7.27%; `Cc1nc(CN2Cc3nccn3CC(COCC3CC3)C2)cs1` (stereo not given): -0.0625%. Next, `Cc1nc(CN2CCC3(CC2)CC(c2cccnc2)C(=O)N3C)cs1` (stereo not given): -3.5%; `O=C1NCCN1C1CCN(CCOc2ccccc2F)CC1`: -5.97%; `Cc1ccoc1C(=O)NCC(Cc1ccc(F)cc1)C(N)=O` (stereo not given): -3.51%.

As for `CCC(NC(=O)C1CCN(C(C)C)CC1)c1cn2cccnc2n1` (stereo not given), the cytotoxicity at 70.5 h is -2.43%. Next, `Cn1c(=O)ccn(CC(=O)N2CCCC(n3cccn3)C2)c1=O` (stereo not given): -9.63%.

For `CCOc1ccnc(NCc2nc(C)cc(=O)[nH]2)n1`, the cytotoxicity at 70.5 h is -6.71%. Next, `CCCOCCn1ncc(N2CCCC2)cc1=O`: -1.75%.

Take `Cc1ccc(S(C)(=O)=O)cc1NCC(=O)NCCC1=CCCCC1`: the cytotoxicity at 70.5 h is -9.03%. On to `CS(=O)(=O)NCCC1CN(Cc2ccccc2F)CCO1` (stereo not given), for which the cytotoxicity at 70.5 h was 0.792%. The figure for `CCCNC(=O)COc1ccc(C)cn1` is -0.369%; for `O=C(CSCC1CC1)N1CCCC(c2nccn2Cc2cccnc2)C1` (stereo not given) it is -9.29%. As to `CCCc1cc(C(=O)N[C@@H]2CC[C@@H](N3CCOCC3)[C@@H]2O)no1`, the cytotoxicity at 70.5 h was -5.49%.

Turning to `COCC(=O)NC(CC(C)C)c1nc2cccnc2n1C` (stereo not given), the cytotoxicity at 70.5 h came to 20.7%.

For `O=C(Nc1ccccc1)C1CCN(C(=O)COc2ccccc2F)CC1`, the cytotoxicity at 70.5 h came to 7.69%. The figure for `Cc1ccc2c(c1)C1(CCNCC1)CC2NCCO` (stereo not given) is -1.58%. The figure for `CC(c1nc(C2CC2)no1)N1CCN(CC(=O)N2CCOCC2)CC1` (stereo not given) is 0.558%; for `CC1CN(C)CCN1C(=O)c1ccn(-c2ccc(F)cc2)n1` (stereo not given) it is -12.3%; for `O=S1(=O)NCC2(CCCN(Cc3ccccn3)C2)Oc2ncccc21` (stereo not given) it is 30.8%. The figure for `COc1cccc(N2CCN(C(=O)c3noc4c3CCCC4)CC2)c1` is -20.2%; for `CCN(CC)S(=O)(=O)c1cc(NC(=O)CCc2cscn2)ccc1C` it is -6.12%.

With `Cc1nc(C(C)(C)C)sc1C(=O)NCCNc1ncccc1C#N`, the cytotoxicity at 70.5 h is -7.48%. The figure for `NC(=O)c1ccc(N2CCN(Cc3ccc(F)cc3Cl)CC2)nn1` is -9.22%; for `CN1CCN(C(=O)c2ccc3c(c2)nc(N2CCOCC2)n3C)CC1=O` it is -5.46%. As to `Cc1cncc(CN2C[C@@H](O)[C@H](Oc3ccccc3)C2)c1`, the cytotoxicity at 70.5 h was -0.379%. As to `CCC(NC(=O)c1cnc(-c2cccnc2)nc1)c1ccnn1C` (stereo not given), the cytotoxicity at 70.5 h came out at 32.1%. As to `N[C@H]1CN(C(=O)c2ccc(Cl)cc2O)C[C@@H]1C1CC1`, the cytotoxicity at 70.5 h was -3.15%.

With `COc1cccc(-c2n[nH]c3c2CN(C(=O)c2ccncc2)CC3)c1`, the cytotoxicity at 70.5 h was -5.87%. Consider `COc1cc2c(cc1OC)S(=O)(=O)N(Cc1ccccc1C)C2=O`, for which the cytotoxicity at 70.5 h was found to be 23.7%. Take `Cc1ccc(-c2cc(C(=O)O)sn2)cc1`: the cytotoxicity at 70.5 h was -15.1%. Regarding `CC(=O)N1CCC(c2ccnc(Nc3cnccn3)n2)C1` (stereo not given), the cytotoxicity at 70.5 h was -22.3%.

Take `Cc1cc(C)n(CC2(CNC(=O)C(c3ccc(F)cc3)N(C)C)CC2)n1` (stereo not given): the cytotoxicity at 70.5 h is -1.88%. The figure for `COc1coc(C(=O)Nc2ccncc2)cc1=O` is -12.7%; for `CN(Cc1ccco1)[C@@H]1CN(CC2CCOCC2)[C@@H]2CCCO[C@H]12` it is -11.5%. The figure for `Cc1cnc(C(=O)N2CCN(C(=O)C(C)C)[C@@H]3CS(=O)(=O)C[C@@H]32)cn1` is -6.02%. The figure for `CC(C)(NC(=O)C1CCN(C2CCCCC2)CC1)c1nnc(N)s1` is 1.76%; for `COc1ccc(NC(=O)CSc2nc(C)c(C)c(C)c2C#N)cn1` it is -2.39%; for `CC(=O)N1CCCN(CCCSc2ccccc2Cl)CC1` it is -6.8%. Regarding `CCOc1ccccc1C(=O)N1CC(=O)N(C2CCC2)CC(O)C1` (stereo not given), the cytotoxicity at 70.5 h is -4.81%. Turning to `O=S(=O)(C1CC1)N1CCc2ncnc(N3CCCC3)c2CC1`, the cytotoxicity at 70.5 h was -14.9%.

Consider `c1coc(CNc2nnc(Cc3ccsc3)o2)c1`, for which the cytotoxicity at 70.5 h was -3.55%. The figure for `COCC(c1ccccn1)N(C)C(=O)c1cc(-c2ccc(O)cc2)n[nH]1` (stereo not given) is -1.31%; for `CC(C)c1n[nH]c(C(=O)Nc2ccncc2)c1Br` it is 3.41%. Next, `O=S(=O)(NCC1OCCc2cn(Cc3ccccn3)nc21)C1CC1` (stereo not given): -0.93%; `CS(=O)(=O)N1CCC(OCCCc2ccccc2)C1` (stereo not given): 3.28%; `CN1Cc2nc[nH]c2C[C@H]1C(=O)NC1CCCCC1`: -3.45%. The figure for `Cc1cnc(C(=O)N2CCCC(Cn3cc(C4CC4)nn3)C2)cn1` (stereo not given) is -10.1%; for `CC1(c2ccc(Br)cc2)CC(=O)N(CCC(N)=O)C1=O` (stereo not given) it is -6.18%; for `COc1ccc2nnc(CCCC(=O)NCCc3ccncc3)n2n1` it is -5%. Regarding `COCC1CN(c2ccc(C#N)c(Cl)c2)CCO1` (stereo not given), the cytotoxicity at 70.5 h was 21.2%.

Take `CCCc1nc(C)c(CNc2nc(C)nc3oc(C)nc23)s1`: the cytotoxicity at 70.5 h is -8.14%. The figure for `CC(=O)N1CCC(NC(=O)CN2CCCc3c(C)ccc(F)c32)CC1` is -9.21%; for `CN(Cc1cccc(Cl)c1)C(=O)Cn1nc(-c2ccc(F)cc2)oc1=O` it is -2.8%. The figure for `CCS(=O)(=O)Nc1ccn(Cc2cccc(F)c2)n1` is -11.5%; for `O=C(NCC1CC1)c1cc2c(s1)CCN2C(=O)c1cccnc1` it is -8.04%.

For the molecule `Cn1cc(CN2CCC3(CC2)CC(Nc2nccs2)CO3)cn1` (stereo not given), the cytotoxicity at 70.5 h was found to be 16.9%.

These data come from ChEMBL document CHEMBL3507680, “University of Dundee, Gates Library screen for HepG2 cell viability”.
